Experiments:
[1] = system: IL-2 secretion by human effector memory T cells (TEM); assay: Effector memory T cells IL-2 release assay; type: cell-based; conditions: T-cell; human CD4+ effector memory T cells, CD3/CD28 bead stimulation, 24 h; read-out: CD4TC IL2 IC50
Method in brief: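 Human CD4+ effector memory T cells from healthy-donor buffy coats were stimulated with anti-CD3/CD28 Dynabeads and exposed to 10 semi-log compound doses (0.1% DMSO) for 24 h at 37 °C. Supernatant IL-2 was measured by HTRF, and IC50 came from a 4-parameter logistic fit to maximal IL-2. Viability was checked by flow cytometry.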

[2] = target: Recombinant human MALT-1 (amino acids 340-824) (Homo sapiens (Human), UniProt Q9UDY8); assay: MALT-1 inhibition assay (fluorogenic substrate Ac-LRSR-Rh110-DP); type: biochemical; conditions: recombinant human MALT-1, substrate Ac-LRSR-Rh110-DP
Sequence of Recombinant human MALT-1 (amino acids 340-824) (Q9UDY8 340-824): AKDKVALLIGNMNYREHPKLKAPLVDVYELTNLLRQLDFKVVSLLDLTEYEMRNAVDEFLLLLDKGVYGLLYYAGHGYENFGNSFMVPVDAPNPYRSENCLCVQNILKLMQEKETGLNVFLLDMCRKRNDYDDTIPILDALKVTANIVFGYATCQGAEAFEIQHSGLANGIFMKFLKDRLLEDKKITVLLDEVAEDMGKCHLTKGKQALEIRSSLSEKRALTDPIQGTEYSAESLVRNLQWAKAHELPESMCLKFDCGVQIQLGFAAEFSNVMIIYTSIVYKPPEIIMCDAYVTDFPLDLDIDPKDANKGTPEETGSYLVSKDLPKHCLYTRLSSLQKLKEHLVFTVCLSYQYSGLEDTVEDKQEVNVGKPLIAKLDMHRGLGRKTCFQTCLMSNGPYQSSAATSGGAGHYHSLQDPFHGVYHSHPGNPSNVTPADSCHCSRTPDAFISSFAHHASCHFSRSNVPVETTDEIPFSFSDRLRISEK
Method in brief: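 Reactions were started with fluorogenic substrate Ac-LRSR-Rh110-DP (10 μM final) against 3 nM enzyme and kept dark at 25° C for 60 minutes. IC50 values came from 4-parameter logistic fits of percent inhibition calculated from relative fluorescence units.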

Row | SMILES | IC50 [1] [nM] | IC50 [2] [nM]
1 | CN(C(=O)[C@H]1CCCS(=O)(=O)N1)[C@@H](c1ccc(N2CCCc3c2cnc2cc(Cl)nn32)cc1)C(F)(F)F (relative stereo) [CPD0073560, (3rel-R)-N-[(1S)-1-(4-{4-chloro-2,3,7,10-tetraazatricyclo[7.4.0.0^2,6]trideca-1(9),3,5,7-tetraen-10-yl}phenyl)-2,2,2-trifluoroethyl]-N-methyl-1,1-dioxo-1λ^6,2-thiazinane-3-carboxamide] | 157 | 92
2 | COC[C@]1(C)CCN(c2ccc([C@H](N(C)C(=O)[C@H]3CC[S@+]([O-])CC3)C(F)(F)F)cc2)c2cnc3cc(Cl)nn3c21 (relative stereo) [CPD0073136, (1rel-r,4rel-r)-N-[(1S)-1-[4-[(13rel-R)-4-chloro-13-(methoxymethyl)-13-methyl-2,3,7,10-tetrazatricyclo[7.4.0.0^2,6]trideca-1(9),3,5,7-tetraen-10-yl]phenyl]-2,2,2-trifluoro-ethyl]-N-methyl-1-oxo-1λ^4-thiane-4-carboxamide] | 63 | 138
3 | CN(C(=O)C1CCS(=O)(=O)CC1)[C@@H](c1ccc(N2CC(C)(C)Cc3c2cnc2cc(Cl)nn32)cc1)C(F)(F)F [CPD0022149, N-[(1S)-1-(4-{4-chloro-12,12-dimethyl-2,3,7,10-tetraazatricyclo[7.4.0.0^2,6]trideca-1(9),3,5,7-tetraen-10-yl}phenyl)-2,2,2-trifluoroethyl]-N-methyl-1,1-dioxo-1λ^6-thiane-4-carboxamide] | 93 | 71
4 | COc1ccc2ncc3c(c2n1)C(O)CCN3c1ccc([C@H](N(C)C(=O)C2CCS(=O)(=O)CC2)C(F)(F)F)cc1 (stereo partly drawn) [CPD0072449, N-methyl-1,1-dioxo-N-[(1S)-2,2,2-trifluoro-1-[4-(10-hydroxy-2-methoxy-9,10-dihydro-8H-pyrido[2,3-f][1,7]naphthyridin-7-yl)phenyl]ethyl]thiane-4-carboxamide] | 940 | 432
5 | CSc1cc2ncc3c(n2n1)CCCN3c1ccc([C@H](N(C)C(=O)C2CCS(=O)(=O)CC2)C(F)(F)F)cc1 [CPD0021815, N-methyl-1,1-dioxo-N-[(1S)-2,2,2-trifluoro-1-{4-[4-(methylsulfanyl)-2,3,7,10-tetraazatricyclo[7.4.0.0^2,6]trideca-1(9),3,5,7-tetraen-10-yl]phenyl}ethyl]-1λ^6-thiane-4-carboxamide] | 228 | 332
6 | Cc1cc(N2CCCc3c2cnc2cc(Cl)nn32)ccc1[C@H](N(C)C(=O)C1CCS(=O)(=O)CC1)C(F)(F)F [CPD0072808, N-[(1S)-1-(4-{4-chloro-2,3,7,10-tetraazatricyclo[7.4.0.0^2,6]trideca-1(9),3,5,7-tetraen-10-yl}-2-methylphenyl)-2,2,2-trifluoroethyl]-N-methyl-1,1-dioxo-1λ^6-thiane-4-carboxamide] | 237 | 127
7 | C[C@@H]1CCN(c2ccc([C@H](N(C)C(=O)[C@H]3CCC(=O)NC3)C(F)(F)F)cc2)c2cnc3cc(Cl)nn3c21 (relative stereo) [CPD0074549, (3rel-S)-N-[(1S)-1-[4-[(13rel-R)-4-chloro-13-methyl-2,3,7,10-tetrazatricyclo[7.4.0.0^2,6]trideca-1(9),3,5,7-tetraen-10-yl]phenyl]-2,2,2-trifluoro-ethyl]-N-methyl-6-oxo-piperidine-3-carboxamide] | 142 | 37
8 | COC(C)c1c(Nc2ccc([C@H](N(C)C(=O)C3CCS(=O)(=O)CC3)C(F)(F)F)cn2)cnc2ccc(Cl)nc12 (stereo partly drawn) [CPD0019499, N-[(1S)-1-(6-{[6-chloro-4-(1-methoxyethyl)-1,5-naphthyridin-3-yl]amino}pyridin-3-yl)-2,2,2-trifluoroethyl]-N-methyl-1,1-dioxo-1λ^6-thiane-4-carboxamide] | 190 | 80
9 | CN1C(=O)CC[C@@H]1C(=O)N(C)[C@@H](c1ccc(N2CCCc3c2cnc2cc(Cl)nn32)cc1)C(F)(F)F [CPD0073920, (2R)-N-[(1S)-1-(4-{4-chloro-2,3,7,10-tetraazatricyclo[7.4.0.0^2,6]trideca-1(9),3,5,7-tetraen-10-yl}phenyl)-2,2,2-trifluoroethyl]-N,1-dimethyl-5-oxopyrrolidine-2-carboxamide] | 94 | 60
10 | COCC1CCN(c2ccc([C@H](N(C)C(=O)C3CCS(=O)(=O)CC3)C(F)(F)F)cc2)c2cnc3cc(Cl)nn3c21 (stereo partly drawn) [CPD0072775] | 143 | 94
11 | COC[C@]1(C)CCN(c2ccc([C@H](N(C)C(=O)[C@H]3CC[S@@](=N)(=O)CC3)C(F)(F)F)cc2)c2cnc3cc(Cl)nn3c21 (relative stereo) [CPD0073131, (1rel-s,4rel-s)-N-[(1S)-1-[4-[(13rel-R)-4-chloro-13-(methoxymethyl)-13-methyl-2,3,7,10-tetrazatricyclo[7.4.0.0^2,6]trideca-1(9),3,5,7-tetraen-10-yl]phenyl]-2,2,2-trifluoro-ethyl]-1-imino-N-methyl-1-oxo-1λ^6-thiane-4-carboxamide] | 97 | 67
12 | COC(C)c1c(Nc2ccc([C@H](N(C)C(=O)C3CCS(=O)(=O)CC3)C(F)(F)F)cc2)cnc2ccc(Cl)nc12 (stereo partly drawn) [CPD0019496, N-[(1S)-1-(4-{[6-chloro-4-(1-methoxyethyl)-1,5-naphthyridin-3-yl]amino}phenyl)-2,2,2-trifluoroethyl]-N-methyl-1,1-dioxo-1λ^6-thiane-4-carboxamide] | 22 | 112
13 | COC[C@@]1(C)CCN(c2ccc([C@H](N(C)C(=O)[C@H]3CC[S@+]([O-])CC3)C(F)(F)F)cc2)c2cnc3cc(Cl)nn3c21 (relative stereo) [CPD0073138, (1rel-r,4 rel-r)-N-[(1S)-1-[4-[(13 rel-S)-4-chloro-13-(methoxymethyl)-13-methyl-2,3,7,10-tetrazatricyclo[7.4.0.0^2,6]trideca-1(9),3,5,7-tetraen-10-yl]phenyl]-2,2,2-trifluoro-ethyl]-N-methyl-1-oxo-1λ^4-thiane-4-carboxamide] | 55 | 79
14 | CN(C(=O)[C@H]1CNC(=O)O1)[C@@H](c1ccc(N2CCCc3c2cnc2cc(Cl)nn32)cc1)C(F)(F)F (single isomer, unassigned) [CPD0075576] | 57 | 46
15 | COC[C@]1(C)CCN(c2ccc([C@H](N(C)C(=O)[C@H]3CC[S@](=N)(=O)CC3)C(F)(F)F)cc2)c2cnc3cc(Cl)nn3c21 (relative stereo) [CPD0073132, (1rel-r,4rel-r)-N-[(1S)-1-[4-[(13rel-R)-4-chloro-13-(methoxymethyl)-13-methyl-2,3,7,10-tetrazatricyclo[7.4.0.0^2,6]trideca-1(9),3,5,7-tetraen-10-yl]phenyl]-2,2,2-trifluoro-ethyl]-1-imino-N-methyl-1-oxo-1λ^6-thiane-4-carboxamide] | 150 | 101
16 | CN(C(=O)[C@H]1CC[S@](=N)(=O)CC1)[C@@H](c1ccc(N2CCC3(CC3)c3c2cnc2cc(F)nn32)cc1)C(F)(F)F (relative stereo) [CPD0072853, (1rel-r,4rel-r)-1-imino-N-methyl-1-oxo-N-[(1S)-2,2,2-trifluoro-1-(4-{4′-fluoro-2′,3′,7′,10′-tetraazaspiro[cyclopropane-1,13′-tricyclo[7.4.0.0^2,6]tridecane]-1′(9′),3′,5′,7′-tetraen-10′-yl}phenyl)ethyl]-1λ^6-thiane-4-carboxamide] | 62 | 23
17 | C[C@H]1CCN(c2ccc([C@H](N(C)C(=O)[C@H]3CC[S@@](=N)(=O)CC3)C(F)(F)F)cc2)c2cnc3cc(Cl)nn3c21 (relative stereo) [CPD0073194, (1rel-s,4rel-s)-N-[(1S)-1-{4-[(13rel-S)-4-chloro-13-methyl-2,3,7,10-tetraazatricyclo[7.4.0.0^2,6]trideca-1(9),3,5,7-tetraen-10-yl]phenyl}-2,2,2-trifluoroethyl]-1-imino-N-methyl-1-oxo-1λ^6-thiane-4-carboxamide] | 51 | 20
18 | CN(C(=O)[C@H]1CCCS(=O)(=O)C1)[C@@H](c1ccc(N2CCCc3c2cnc2cc(Cl)nn32)cc1)C(F)(F)F [CPD0021809] | 143 | 154
19 | CN(C(=O)C1CC(O)C1)[C@@H](c1ccc(N2CCCc3c2cnc2cc(Cl)nn32)cc1)C(F)(F)F (stereo partly drawn) [CPD0021565, N-[(1S)-1-(4-{4-chloro-2,3,7,10-tetraazatricyclo[7.4.0.0^2,6]trideca-1(9),3,5,7-tetraen-10-yl}phenyl)-2,2,2-trifluoroethyl]-3-hydroxy-N-methylcyclobutane-1-carboxamide] | 86 | 84
20 | CN(C(=O)[C@H]1CC[S@+]([O-])CC1)[C@@H](c1ccc(N2CCC3(CC3)c3c2cnc2cc(Cl)nn32)cc1)C(F)(F)F (relative stereo) [CPD0072779, (1rel-r,4rel-r)-N-[(1S)-1-(4-{4′-chloro-2′,3′,7′,10′-tetraazaspiro[cyclopropane-1,13′-tricyclo[7.4.0.0^2,6]tridecane]-1′(9′),3′,5′,7′-tetraen-10′-yl}phenyl)-2,2,2-trifluoroethyl]-N-methyl-1-oxo-1λ^4-thiane-4-carboxamide] | 33 | 57
21 | CC(=O)N1CCC(C(=O)N(C)[C@@H](c2ccc(N3CC[C@H](C)c4c3cnc3cc(Cl)nn43)cc2)C(F)(F)F)CC1 (relative stereo) [CPD0074566, 1-Acetyl-N-[(1S)-1-[4-[(13rel-R)-4-chloro-13-methyl-2,3,7,10-tetrazatricyclo[7.4.0.0^2,6]trideca-1(9),3,5,7-tetraen-10-yl]phenyl]-2,2,2-trifluoro-ethyl]-N-methyl-piperidine-4-carboxamide] | 58 | 54

Source: patent publication US20250051327A1, “MALT-1 MODULATORS” (EXSCIENTIA AI LIMITED, priority 2020, published 2025)
